# The Kinase Knowledgebase extract (Sharma et al. 2016)
# Molecular target: EGFR (human), P00533 [T790M]
# Sequence (P00533 whole entry T790M, looked up): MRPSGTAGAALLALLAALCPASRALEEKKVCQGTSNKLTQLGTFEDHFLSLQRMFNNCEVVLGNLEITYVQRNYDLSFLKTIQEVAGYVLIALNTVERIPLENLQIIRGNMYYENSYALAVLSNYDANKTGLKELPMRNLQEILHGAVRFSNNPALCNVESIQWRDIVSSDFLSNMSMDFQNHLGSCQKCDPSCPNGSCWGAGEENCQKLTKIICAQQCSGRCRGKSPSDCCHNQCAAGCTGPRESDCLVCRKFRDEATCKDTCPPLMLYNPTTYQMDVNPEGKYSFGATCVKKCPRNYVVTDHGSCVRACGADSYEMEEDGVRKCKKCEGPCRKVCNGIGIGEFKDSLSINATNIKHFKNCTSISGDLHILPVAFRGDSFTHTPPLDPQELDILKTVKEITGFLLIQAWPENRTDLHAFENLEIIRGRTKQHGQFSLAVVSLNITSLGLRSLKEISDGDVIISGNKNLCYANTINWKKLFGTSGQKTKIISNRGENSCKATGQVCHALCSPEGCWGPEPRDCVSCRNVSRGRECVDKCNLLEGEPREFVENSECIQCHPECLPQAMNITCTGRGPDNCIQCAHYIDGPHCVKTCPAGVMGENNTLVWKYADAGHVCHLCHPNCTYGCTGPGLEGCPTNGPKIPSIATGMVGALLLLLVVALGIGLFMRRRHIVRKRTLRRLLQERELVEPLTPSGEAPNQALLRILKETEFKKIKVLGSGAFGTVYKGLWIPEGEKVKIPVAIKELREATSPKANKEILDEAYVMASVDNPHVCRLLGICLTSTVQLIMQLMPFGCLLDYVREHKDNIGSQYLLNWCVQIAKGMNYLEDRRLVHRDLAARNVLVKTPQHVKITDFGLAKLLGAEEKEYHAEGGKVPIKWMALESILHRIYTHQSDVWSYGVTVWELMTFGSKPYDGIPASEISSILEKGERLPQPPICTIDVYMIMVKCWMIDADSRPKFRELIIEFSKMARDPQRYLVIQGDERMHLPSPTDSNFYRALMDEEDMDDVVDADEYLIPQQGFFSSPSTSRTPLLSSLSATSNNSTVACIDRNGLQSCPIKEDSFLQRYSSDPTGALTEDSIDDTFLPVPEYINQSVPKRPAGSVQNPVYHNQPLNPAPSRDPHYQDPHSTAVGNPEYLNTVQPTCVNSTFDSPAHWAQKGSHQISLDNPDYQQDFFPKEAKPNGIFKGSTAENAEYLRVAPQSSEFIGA
row,IC50,Compound
1,≤ 10 nM,Cc1cccc(Nc2nc(Nc3cccc(NC(=O)/C=C/CN(C)C)c3)ncc2F)c1
2,≤ 10 nM,C=CC(=O)Nc1cccc(Nc2ncc(F)c(Nc3cccc(C)c3)n2)c1
3,≤ 10 nM,C=CC(=O)Nc1cccc(Nc2ncc(C)c(Nc3cccc(C)c3)n2)c1
4,≤ 10 nM,C=CC(=O)Nc1cccc(Nc2nc(Nc3ccc(OCCOC)c(F)c3)ncc2F)c1

# Molecular target: EGFR (human) (UniProt P00533)
# Sequence (P00533 whole entry, looked up): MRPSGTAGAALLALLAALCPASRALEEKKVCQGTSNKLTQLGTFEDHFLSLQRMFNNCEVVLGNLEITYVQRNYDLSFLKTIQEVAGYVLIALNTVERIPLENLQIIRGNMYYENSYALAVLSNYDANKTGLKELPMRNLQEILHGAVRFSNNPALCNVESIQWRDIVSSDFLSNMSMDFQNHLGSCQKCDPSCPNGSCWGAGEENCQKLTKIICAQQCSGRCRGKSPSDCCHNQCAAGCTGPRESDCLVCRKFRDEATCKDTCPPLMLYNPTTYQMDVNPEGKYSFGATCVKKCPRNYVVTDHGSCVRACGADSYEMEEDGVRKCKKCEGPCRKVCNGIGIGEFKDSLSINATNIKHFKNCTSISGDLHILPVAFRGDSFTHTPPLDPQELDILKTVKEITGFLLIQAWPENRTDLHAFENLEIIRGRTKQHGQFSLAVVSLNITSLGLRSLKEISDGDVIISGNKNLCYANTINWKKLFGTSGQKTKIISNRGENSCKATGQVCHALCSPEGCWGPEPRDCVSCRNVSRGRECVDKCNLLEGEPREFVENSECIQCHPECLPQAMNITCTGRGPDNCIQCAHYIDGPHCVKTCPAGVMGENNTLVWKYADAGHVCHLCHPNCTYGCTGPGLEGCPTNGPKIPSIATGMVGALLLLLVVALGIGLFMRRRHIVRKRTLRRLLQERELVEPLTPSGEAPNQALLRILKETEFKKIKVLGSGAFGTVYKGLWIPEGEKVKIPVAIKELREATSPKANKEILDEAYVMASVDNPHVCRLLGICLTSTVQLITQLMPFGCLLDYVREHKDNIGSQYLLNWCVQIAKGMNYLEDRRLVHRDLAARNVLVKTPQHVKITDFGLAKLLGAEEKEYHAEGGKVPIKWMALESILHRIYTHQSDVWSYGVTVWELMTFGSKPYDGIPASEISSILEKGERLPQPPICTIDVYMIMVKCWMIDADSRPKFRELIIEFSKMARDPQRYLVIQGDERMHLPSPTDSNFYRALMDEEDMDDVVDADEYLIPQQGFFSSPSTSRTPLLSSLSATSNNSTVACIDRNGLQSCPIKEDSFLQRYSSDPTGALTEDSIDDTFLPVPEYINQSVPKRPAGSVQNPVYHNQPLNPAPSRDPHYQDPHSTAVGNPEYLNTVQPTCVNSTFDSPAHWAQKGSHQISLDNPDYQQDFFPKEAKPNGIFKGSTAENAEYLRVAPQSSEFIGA
row,IC50,Compound
1,2.23 nM,C=CC(=O)Nc1ccc(C)c(Nc2nccc(-c3cccnc3)n2)c1

# Molecular target: EGFR (human), P00533 [WT]
# Sequence (P00533 whole entry, looked up): as above
row,Compound,IC50
1,C=CC(=O)N1CCC[C@@H](Nc2nc(Nc3cccc(Cl)c3)ncc2F)C1,≤ 10 nM
2,C=CC(=O)Nc1cccc(Nc2nc(Nc3ccccc3)ncc2C(F)(F)F)c1,≤ 10 nM
3,C=CC(=O)Nc1cccc(Oc2nc(Nc3cccc(OC)c3)ncc2C(=O)NC2CC2)c1,≤ 10 nM
4,C=CC(=O)Nc1cccc(Oc2nc(Nc3cccc(OCCCN4CCCC4=O)c3)ncc2F)c1,≤ 10 nM
5,COCCN(C)C/C=C/C(=O)Nc1cccc(Nc2ncc(F)c(Nc3cccc(C)c3)n2)c1,≤ 10 nM
6,C=CC(=O)Nc1cccc(Oc2nc(Nc3ccc(OC)nc3)ncc2C(=O)NC2CC2)c1,≤ 10 nM
7,C=CC(=O)Nc1ccc(Nc2nc(Nc3ccc(OC)nc3)ncc2C(F)(F)F)cc1,≤ 10 nM
8,C=CC(=O)Nc1cccc(Nc2nc(Nc3ccc(OCCOC)cc3)ncc2F)c1,≤ 10 nM
9,C=CC(=O)Nc1ccc(C)c(Nc2ncc(C)c(Nc3cccc(C)c3)n2)c1,≤ 10 nM
10,C=CC(=O)Nc1cccc(Oc2nc(Nc3ccc(OC)nc3)ncc2C(C)=O)c1,≤ 10 nM
11,C=CC(=O)Nc1cccc(Oc2nc(Nc3cccc(N4CCN(CCO)CC4)c3)ncc2F)c1,≤ 10 nM
12,C=CC(=O)Nc1cccc(Nc2nc(Nc3ccc(OC)nc3)ncc2C#N)c1,≤ 10 nM
13,C=CC(=O)Nc1cccc(Nc2nc(Nc3cccc(S(N)(=O)=O)c3)ncc2C)c1,≤ 10 nM
14,C=CC(=O)Nc1cccc(Oc2nc(Nc3cccc(OCC4CCCN(C)C4)c3)ncc2F)c1 (centres undefined),≤ 10 nM
15,C=CC(=O)Nc1cccc(Oc2nc(Nc3cccc(OCCCS(C)(=O)=O)c3)ncc2F)c1,≤ 10 nM
16,C=CC(=O)Nc1cccc(Nc2nc(Nc3cccc(S(N)(=O)=O)c3)ncc2F)c1,≤ 10 nM

row,Compound,IC50
1,C=CC(=O)Nc1cccc(Nc2nc(Nc3ccc(OCC4CCN(C)CC4)nc3)ncc2F)c1,≤ 10 nM
2,C=CC(=O)Nc1cccc(Nc2nc(Nc3ccc(OCC(O)CO)c(F)c3)ncc2F)c1 (centres undefined),≤ 10 nM
3,C=CC(=O)N1CCOc2ccc(Nc3nc(Nc4ccc(OCCOC)cc4)ncc3C(C)=O)cc21,≤ 10 nM
4,C=CC(=O)Nc1cccc(Nc2nc(Nc3ccccc3)ncc2C)c1,≤ 10 nM
5,C=CC(=O)Nc1cccc(Nc2nc(Nc3ccc(OCC4CCN(C)CC4)cc3)ncc2F)c1,≤ 10 nM
6,C=CC(=O)Nc1cccc(Nc2nc(Nc3cccc(OCC4CCN(C)CC4)c3)ncc2F)c1,≤ 10 nM
7,C=CC(=O)Nc1cccc(Nc2nc(Nc3ccc(OCCCNC(=O)OC(C)(C)C)cc3)ncc2F)c1,≤ 10 nM
8,C=CC(=O)Nc1cccc(Nc2nccc(Nc3cccc(C)c3)n2)c1,≤ 10 nM
9,Cc1cccc(Nc2nc(Nc3cccc(NC(=O)/C=C/CN4CC[C@@H](O)C4)c3)ncc2F)c1,≤ 10 nM
10,C=CC(=O)Nc1cccc(Oc2nc(Nc3cccc(OCC4CCN(C)CC4)c3)ncc2F)c1,≤ 10 nM
11,C=CC(=O)Nc1cccc(Oc2nc(Nc3ccccc3)ncc2C)c1,≤ 10 nM
12,Cc1cccc(Nc2nc(Nc3cccc(NC(=O)/C=C/CN(C)C)c3)ncc2C)c1,≤ 10 nM
13,C=CC(=O)Nc1cccc(Oc2nc(Nc3cccc(OCCN4CCCC4=O)c3)ncc2F)c1,≤ 10 nM
14,C=CC(=O)Nc1cccc(Nc2nc(Nc3ccc(N4CCS(=O)(=O)CC4)nc3)ncc2F)c1,≤ 10 nM
15,C=CC(=O)Nc1cccc(Oc2nc(Nc3cccc(OC)c3)ncc2C(N)=O)c1,≤ 10 nM

# Next, values leading:
row,IC50,Compound
1,≤ 10 nM,C=CC(=O)Nc1cccc(Nc2nc(Nc3cccc(OCCN(C)C)c3)ncc2F)c1
2,≤ 10 nM,C=C(C)C(=O)Cc1cccc(Nc2nc(Nc3ccc(OCCOC)c(F)c3)ncc2F)c1
3,≤ 10 nM,C=CC(=O)Nc1cccc(Nc2nc(Nc3ccc4[nH]ncc4c3)ncc2F)c1
4,≤ 10 nM,C=CC(=O)Nc1cccc(Oc2nc(Nc3ccc(OC)nc3)ncc2C(=O)Nc2ccccc2)c1
5,≤ 10 nM,C=CC(=O)Nc1cccc(Nc2nc(Nc3ccc(OC)nc3)ncc2C2CC2)c1
6,≤ 10 nM,C=CC(=O)Nc1cccc(Nc2nc(Nc3ccc4c(c3)NCCO4)ncc2F)c1
7,≤ 10 nM,C=CC(=O)Nc1cccc(Nc2nc(Nc3ccc(OCCOC)cc3)ncc2C#N)c1
8,≤ 10 nM,C=CC(=O)Nc1cccc(Oc2nc(Nc3cccc(OC)c3)ncc2C(=O)Nc2ccccc2)c1
9,≤ 10 nM,C=CC(=O)Nc1cccc(Nc2nc(Nc3ccc(OCCOC)c(F)c3)ncc2C(F)(F)F)c1
10,≤ 10 nM,C=CC(=O)Nc1cccc(Nc2nc(Nc3ccc4c(cnn4C)c3)ncc2F)c1
11,≤ 10 nM,Cc1cccc(Nc2nc(Nc3cccc(NC(=O)/C=C/CN4CC[C@H](O)C4)c3)ncc2F)c1
12,≤ 10 nM,Cc1cccc(Nc2nc(Nc3cccc(NC(=O)/C=C/CN(C)C)c3)ncc2F)c1
13,≤ 10 nM,C=CC(=O)Nc1cccc(Nc2ncc(F)c(Nc3cccc(C)c3)n2)c1
14,≤ 10 nM,C=CC(=O)N1CCOc2ccc(Nc3nc(Nc4ccc(N5CCOCC5)cc4)ncc3C(C)=O)cc21
15,≤ 10 nM,C=CC(=O)Nc1cccc(Nc2nc(Nc3cccc(OCC(O)CO)c3)ncc2F)c1 (centres undefined)
16,≤ 10 nM,C=CC(=O)Nc1cccc(Nc2nc(Nc3ccc(OCC(O)CO)cc3)ncc2F)c1 (centres undefined)
17,≤ 10 nM,C=CC(=O)Nc1cccc(Nc2nc(Nc3cccc(OCC4CCCN(C)C4)c3)ncc2F)c1 (centres undefined)
18,≤ 10 nM,C=CC(=O)Nc1cccc(Nc2nc(Nc3ccc4c(c3)CC(=O)N4)ncc2F)c1
19,≤ 10 nM,C=CC(=O)Nc1cccc(Nc2nc(Nc3ccccc3)ncc2C#N)c1
20,≤ 10 nM,C=CC(=O)Nc1cccc(Oc2nc(Nc3ccc(OC)nc3)ncc2C)c1
21,≤ 10 nM,Cc1cnc(Nc2cccc(S(N)(=O)=O)c2)nc1Nc1ccc2c(c1)CCN(C(=O)CCl)C2
22,≤ 10 nM,C=CC(=O)Nc1cccc(Nc2nc(Nc3cccc(OCCCN4CCCC4=O)c3)ncc2F)c1
23,≤ 10 nM,C=CC(=O)Nc1cccc(Nc2nc(Nc3ccc(OCCOC)c(F)c3)ncc2C#N)c1
24,≤ 10 nM,C=CC(=O)Nc1cccc(Oc2nc(Nc3ccc(OCCOC)cc3)ncc2C2CC2)c1
25,≤ 10 nM,C=CC(=O)Nc1cccc(Nc2nc(Nc3cccc(CO)c3)ncc2F)c1
26,≤ 10 nM,C=CC(=O)Nc1cccc(Nc2ncc(C)c(Nc3ccccc3)n2)c1

# Molecular target: EGFR (Human), P00533 [T790M/L858R]
# Sequence (P00533 whole entry T790M/L858R, looked up): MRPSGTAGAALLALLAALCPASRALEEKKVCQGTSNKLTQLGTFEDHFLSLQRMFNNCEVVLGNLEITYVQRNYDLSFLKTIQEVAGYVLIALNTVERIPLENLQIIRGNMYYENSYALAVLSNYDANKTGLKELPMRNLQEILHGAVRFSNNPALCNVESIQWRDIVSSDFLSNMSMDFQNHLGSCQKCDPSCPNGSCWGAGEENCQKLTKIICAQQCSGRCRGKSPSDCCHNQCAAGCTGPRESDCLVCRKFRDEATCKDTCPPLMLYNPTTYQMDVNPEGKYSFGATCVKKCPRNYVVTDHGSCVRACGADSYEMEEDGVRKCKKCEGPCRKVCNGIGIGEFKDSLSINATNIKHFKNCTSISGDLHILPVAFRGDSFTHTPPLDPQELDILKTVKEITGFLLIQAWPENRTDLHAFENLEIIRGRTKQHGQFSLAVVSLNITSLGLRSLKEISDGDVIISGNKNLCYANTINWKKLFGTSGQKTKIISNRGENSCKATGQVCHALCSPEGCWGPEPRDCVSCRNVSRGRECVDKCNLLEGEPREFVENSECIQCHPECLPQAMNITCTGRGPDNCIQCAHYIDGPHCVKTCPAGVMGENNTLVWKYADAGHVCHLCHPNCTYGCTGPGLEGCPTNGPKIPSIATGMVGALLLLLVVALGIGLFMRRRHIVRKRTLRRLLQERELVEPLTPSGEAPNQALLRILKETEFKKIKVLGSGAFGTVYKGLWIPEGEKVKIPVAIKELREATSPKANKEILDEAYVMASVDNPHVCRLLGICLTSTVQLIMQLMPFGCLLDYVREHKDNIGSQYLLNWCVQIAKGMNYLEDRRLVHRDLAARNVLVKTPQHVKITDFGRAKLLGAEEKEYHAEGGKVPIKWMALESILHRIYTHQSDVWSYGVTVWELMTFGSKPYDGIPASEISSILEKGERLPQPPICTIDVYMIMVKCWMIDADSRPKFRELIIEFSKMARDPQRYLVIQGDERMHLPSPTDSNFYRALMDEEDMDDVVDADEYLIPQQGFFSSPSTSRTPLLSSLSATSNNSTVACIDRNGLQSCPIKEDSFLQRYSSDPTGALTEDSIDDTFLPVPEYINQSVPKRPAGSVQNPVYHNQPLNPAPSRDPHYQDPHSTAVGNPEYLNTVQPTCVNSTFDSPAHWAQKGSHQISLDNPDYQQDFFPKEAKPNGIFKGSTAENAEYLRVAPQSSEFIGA
row,Compound,IC50
1,C#CCOc1cccc(Nc2ncc(C)c(Nc3cccc(NC(=O)C=C)c3)n2)c1,≤ 10 nM
2,C=CC(=O)Nc1ccc(C)c(Nc2ncc(C)c(Nc3cccc(C)c3)n2)c1,≤ 10 nM
3,C=CC(=O)Nc1cccc(Nc2nc(Nc3ccccc3)ncc2C)c1,≤ 10 nM
4,C=CC(=O)Nc1ccc(C)c(Nc2nccc(-c3cccnc3)n2)c1,≤ 10 nM
5,C=CC(=O)Nc1cccc(Nc2nccc(Nc3cccc(C)c3)n2)c1,≤ 10 nM

# Next, values leading:
row,IC50,Compound
1,≤ 10 nM,Cc1cnc(Nc2ccccc2)nc1Nc1cccc(NC(=O)/C=C/CN(C)C)c1
2,≤ 10 nM,Cc1cccc(Nc2nc(Nc3cccc(NC(=O)/C=C/CN(C)C)c3)ncc2F)c1
3,≤ 10 nM,C=CC(=O)Nc1cccc(Nc2ncc(F)c(Nc3cccc(C)c3)n2)c1
4,≤ 10 nM,C=CC(=O)Nc1cccc(Nc2ncc(C)c(Nc3cccc(C)c3)n2)c1
5,≤ 10 nM,Cc1cnc(Nc2cccc(S(N)(=O)=O)c2)nc1Nc1ccc2c(c1)CCN(C(=O)CCl)C2
6,≤ 10 nM,C=CC(=O)Nc1cccc(Nc2nc(Nc3ccc(OCCOC)c(F)c3)ncc2F)c1
7,≤ 10 nM,C=CC(=O)Nc1cccc(Nc2ncc(C)c(Nc3ccccc3)n2)c1
